# Measurements: article PMC9816242, “Human metabolism and excretion kinetics of benzotriazole UV stabilizer UV-327 after single oral administration” (Archives of Toxicology, 2022)
# Key:
# [1] = clinical; settings: for form present in urine (conjugated/unconjugated): urine processed with and without enzymatic hydrolysis; for relative urinary share of the amount recovered within 72 h: % of the dose recovered in urine within 72 h; for t1/2 (elimination half-life, renal excretion): from mean excretion curves
# Experimental: Enzymatic hydrolysis was performed at 37 °C for 16 h using β-glucuronidase/arylsulfatase from H. pomatia. The analytes and internal standards were extracted by dispersive liquid–liquid microextraction (DLLME) with isopropanol and chloroform. […] The urinary creatinine content was determined photometrically by the Jaffé’s method (Larsen [1972]).
# Renal excretion rates (RE, in µg/h) of each analyte at a certain point in time were calculated by the following equation: RE=ci×vi/ti-ti-1
# where ci (in µg/l) is the concentration of UV-327 or its metabolites in the urine sample i, vi (in l) is the volume of the respective urine sample, ti (in h) is the elapsed time value of the sampling, and ti−1 (in h) is the elapsed time value of the previous sampling.
# Renal excretion kinetics of UV-327 and its metabolites were plotted as temporal progressions of the renal excretion rates RE at the midpoint of the respective sampling periods (ti,m in h), which were calculated as follows: ti,m=ti-1+ti-ti-1/2
# Excretion curves were prepared for each study participant and each analyte by plotting the current excretion rates against the average time of the sampling period. Mean excretion curves were then obtained by averaging the closest sampling time points and the corresponding renal excretion rates for all study participants (mean ± standard deviation (SD)). The slopes (kel, elimination rate constant) of the ln-transformed mean excretion curves were used to calculate the elimination half-lives (t1/2) as follows: t1/2=ln(2)/kel
# By summing the molar excreted amounts of UV-327 and its metabolites, the cumulative excreted amount of each analyte (in µmol) was calculated for each study participant: ∑i=0nci×vi/M
# Furthermore, urinary excretion factors (FUE) as UV-327 dose equivalents (as percentages) were calculated to express the total excretion of UV-327 and its metabolites in urine after 24 h, 48 h, and 72 h: FUE=CEi/MD×100
# CEi is the amount of the respective analyte excreted after 24 h, 48 h, and 72 h (in µmol) and MD is the ingested amount of UV-327 (in µmol).
# The shares of conjugation of UV-327 and its metabolites were determined by correlation of the urinary excretion rates obtained with and without the performance of enzymatic hydrolysis. The slope of the linear fit describes the percentage of the unconjugated form of the respective analyte.
# [2] = UV-327 and metabolites in whole blood of volunteers after single oral administration of UV-327; settings: for share of the total amount of all analytes at the time point of maximum concentration: blood, UV-327 equivalents at cmax; for time after which mean blood level was below LOD / cmax (maximum blood level): whole blood; for time after which mean blood level was below LOD: single oral 0.3 mg/kg UV-327; for cmax (maximum blood level): single oral 0.3 mg/kg body weight UV-327, n = 3, mean ± SD
# Experimental: (§1) The administered dose of UV-327 was calculated with respect to an adequate distance from the no observed adverse effect level (NOAEL) determined in toxicological studies. […] As a result, 0.3 mg of UV-327/kg body weight was administered to each participant.
# (§2) For the determination of potential background exposure, one blood and one urine sample of each participant were collected prior to the oral administration of UV-327. 14–29 mg of UV-327 were weighed directly onto a small piece of bread with butter, which was then consumed by the volunteers. Samples of urine and blood were then collected up to 72 h post-application. The participants collected all urine voids in separate containers. The sampling times and volumes of each sample were recorded. The urine samples were aliquoted and stored at − 50 °C until analysis. 9 ml of blood were drawn from peripheral veins at 2 h, 4 h, 6 h, 8 h, 10 h, 24 h, 34 h, 48 h, and 72 h after exposure and collected in EDTA-Monovettes®. Additional blood samples were collected from one subject 14 h, 28 h, and 58 h after exposure. This study participant donated two blood samples at each point in time; one blood sample was centrifuged to obtain plasma samples. Both blood and plasma samples were stored at − 50 °C until analysis.
# (§3) Whole blood samples were prepared, processed, and analyzed according to a previously published method (Fischer and Göen [2022]). Proteins and cellular components were precipitated by the addition of acetonitrile. After centrifugation, the supernatants were diluted with water and ammonium acetate buffer. For analyte extraction, chloroform was added. The extracts were evaporated to dryness, followed by the addition of toluene and derivatization with both BSA/TCMS and TSIM. LODs ranged from 0.02 to 0.36 µg/l. […] Mean relative recovery rates ranged from 91% to 118%.
# (§4) The blood samples of one study participant were additionally processed with the addition of β-glucuronidase/arylsulfatase from H. pomatia and incubation at 37 °C for 16 h to examine potential conjugation of UV-327 and its metabolites to glucuronide/sulfate.
# (§5) A TRACE 1310 gas-chromatographic system equipped with a TriPlus RSH autosampler and a split/splitless injector was used for the analysis of the urine, blood, and plasma samples. The gas-chromatographic system was coupled to a TSQ 9000 triple–quadrupole mass spectrometer equipped with an advanced electron ionization (AEI) source (Thermo Fisher Scientific Inc., Waltham, USA). Chromatographic separation was performed on a (5% phenyl)-methylpolysiloxane low-bleed capillary column (HP-5msUI, 60 m × 250 µm × 0.25 µm, Agilent Technologies, Inc., Santa Clara, USA) at a constant flow rate of 1 ml/min using helium as a carrier gas. Total analysis time was 44 min. The GC–MS/MS equipment and parameter-specific settings were used as described in earlier publications for the analysis of urine (Fischer and Göen [2021]) and blood samples (Fischer and Göen [2022]). Plasma samples were analyzed using the same parameter-specific settings as for the analysis of blood samples.
# (§6) Mean concentration–time curves in blood were obtained by plotting the mean blood levels against time. The elimination half-lives (t1/2) were calculated as described above. […] For this purpose, UV-327 equivalents (as percentages) were calculated as follows: ∑i=0ncmax/M×MUV-327×100
# [3] = UV-327 and metabolites in plasma of one volunteer after single oral administration of UV-327; settings: n = 1; AUC plasma / AUC blood per method
# Experimental: (§7) For the determination of potential background exposure, one blood and one urine sample of each participant were collected prior to the oral administration of UV-327. 14–29 mg of UV-327 were weighed directly onto a small piece of bread with butter, which was then consumed by the volunteers. Samples of urine and blood were then collected up to 72 h post-application. The participants collected all urine voids in separate containers. The sampling times and volumes of each sample were recorded. The urine samples were aliquoted and stored at − 50 °C until analysis. 9 ml of blood were drawn from peripheral veins at 2 h, 4 h, 6 h, 8 h, 10 h, 24 h, 34 h, 48 h, and 72 h after exposure and collected in EDTA-Monovettes®. […] Both blood and plasma samples were stored at − 50 °C until analysis.
# (§8) Stock solutions of each analyte and internal standard (200 mg/l) were prepared in acetone. For calibration, an analyte spiking solution was prepared in a mixture of acetonitrile and aqueous 0.9% NaCl solution (v/v, 1:1), which contained 500 µg/l of each metabolite. For the determination of UV-327, two analyte spiking solutions were prepared, containing 2 mg/l or 40 mg/l of UV-327 in a mixture of acetonitrile and 0.9% NaCl solution (v/v, 1:1). The internal standard spiking solution contained 20 mg/l of D20-UV-327 and 1 mg/l each of D6-UV-327-4-mcx, D6-UV-327-4-mOH, D12-UV-327-4 + 6-diOH, and D6-UV-327-4-mOH-6-mcx. For derivatization, a solution containing 5% (v/v) TSIM in toluene was freshly prepared for each analytical run. Calibration standards were prepared by spiking human plasma with various volumes of the analyte spiking solutions. An eight-point calibration curve in the range of 0.5–25 µg/l was applied for the determination of the metabolites, except for UV-327-4-mOH-6-mcx, for which the calibration range was set to 2–100 µg/l due to higher limits of detection and quantitation. For the determination of UV-327, a nine-point calibration curve in the range of 10–2000 µg/l was applied. A reagent blank sample, containing water instead of plasma, was included in each analytical run. […]
# [4] = design: method as in Sommer et al. [2020]; settings: oral administration, ref Sommer et al. [2020]; cited from earlier work
# [5] = system: human estrogen receptor; design: method as in Fent et al. [2014]; Sakuragi et al. [2021]; settings: ref Fent et al. [2014]; Sakuragi et al. [2021]; cited from earlier work
# [6] = system: human androgen receptor; design: method as in Fent et al. [2014]; Sakuragi et al. [2021]; settings: ref Fent et al. [2014]; Sakuragi et al. [2021]; cited from earlier work
# [7] = system: thyroid hormone receptors; design: method as in Nagayoshi et al. [2015]; settings: ref Nagayoshi et al. [2015]; cited from earlier work
# [8] = system: human serum albumin; design: method as in Zhuang et al. [2016]; settings: ref Zhuang et al. [2016]; cited from earlier work
# [9] = design: method as in Cantwell et al. [2015]; settings: ref Cantwell et al. [2015]; cited from earlier work
# [10] = clinical; settings: both, human, whole blood, po, 0.3 mg/kg
# Experimental: as §1, §2, §3, §4, §5, §6
# [11] = clinical; settings: human, plasma, po, 0.3 mg/kg
# Experimental: as §7, §8
# [12] = system: rats; settings: ref Ema et al. [2006]; cited from earlier work
# [13] = system: rats; settings: ref Ema et al. [2008]; cited from earlier work
# [14] = system: rats; settings: especially male, ref Ema et al. [2008]; cited from earlier work
# [15] = system: beagle dogs; settings: 90-day feeding study, ref CIBA AG [1970]; cited from earlier work
# [16] = in vitro; ref Fischer et al. [2020]; cited from earlier work
# [17] = in vivo, po; cited from earlier work
# [18] = urine of one participant, with vs without enzymatic hydrolysis
# [19] = urine up to 72 h, n = 3, mean ± SD
# [20] = both, human, in vivo, po, 0.3 mg/kg
molecule,measurement,setting,value
"2-(5-chloro-benzotriazol-2-yl)-4,6-di-(1-hydroxy-2-methylpropyl)phenol [UV-327-4 + 6-diOH]",FUE after 24 h (urinary excretion factor),"[1]; human, in vivo",0.0104 ± 0.0022%
same,FUE after 48 h (urinary excretion factor),"[1]; human, in vivo",0.0156 ± 0.0027%
same,FUE after 72 h (urinary excretion factor),"[1]; human, in vivo",0.018%
same,REmax (maximum renal excretion rate),"[1]; human, in vivo, po, 0.3 mg/kg",0.214 ± 0.058 µg/h
same,tmax (time point of maximum renal excretion rate),"[1]; human, in vivo, po, 0.3 mg/kg",10.6 ± 0.08 h
same,Share of conjugation,[1]; [18],100%
same,form present in urine (conjugated/unconjugated),[1],only present in their conjugated forms
same,Cumulative excreted amount,[1]; [19],0.0121 ± 0.0051 µmol
same,FUE after 72 h (urinary excretion factor),"[1]; urine, % of ingested UV-327 dose, 72 h, n = 3, mean ± SD",0.0183 ± 0.0030%
same,relative urinary share of the amount recovered within 72 h,[1]; urine,64.5%
same,"t1/2 (elimination half-life, renal excretion)","[1]; urine, n = 3",33.0 h
same,detection in blood,[2]; blood samples up to 72 h post-exposure,not detected in blood
2-(5-chloro-benzotriazol-2-yl)-4-(1-hydroxy-2-methylpropyl)-6-(tert-butyl)phenol [UV-327-4-mOH],FUE after 24 h (urinary excretion factor),"[1]; human, in vivo",0.0016 ± 0.0004%
same,FUE after 48 h (urinary excretion factor),"[1]; human, in vivo",0.0022 ± 0.0007%
same,FUE after 72 h (urinary excretion factor),"[1]; human, in vivo",0.0026 ± 0.0011%
same,REmax (maximum renal excretion rate),"[1]; human, in vivo, po, 0.3 mg/kg",0.032 ± 0.012 µg/h
same,tmax (time point of maximum renal excretion rate),"[1]; human, in vivo, po, 0.3 mg/kg",13.5 ± 0.05 h
same,Share of conjugation,[1]; [18],100%
same,form present in urine (conjugated/unconjugated),[1],only present in their conjugated forms
same,Cumulative excreted amount,[1]; [19],0.0016 ± 0.0009 µmol
same,relative urinary share of the amount recovered within 72 h,[1]; urine,9.2%
same,"t1/2 (elimination half-life, renal excretion)","[1]; urine, n = 3",26.7 h
same,plasma to blood ratio,[3],1.5 to 1.6
same,share of the total amount of all analytes at the time point of maximum concentration,[2],0.04%
same,time after which mean blood level was below LOD,[2],72 h
same,cmax (maximum blood level),[2],0.26 ± 0.10 µg/L
2-(5-chloro-benzotriazol-2-yl)-6-(1-hydroxy-2-methylpropyl)-4-(tert-butyl)phenol [UV-327-6-mOH],FUE after 24 h (urinary excretion factor),"[1]; human, in vivo",0.0034 ± 0.0006%
same,FUE after 48 h (urinary excretion factor),"[1]; human, in vivo",0.0046 ± 0.0010%
same,FUE after 72 h (urinary excretion factor),"[1]; human, in vivo",0.0049 ± 0.0013%
same,REmax (maximum renal excretion rate),"[1]; human, in vivo, po, 0.3 mg/kg",0.068 ± 0.06 µg/h
same,tmax (time point of maximum renal excretion rate),"[1]; human, in vivo, po, 0.3 mg/kg",8.7 ± 0.21 h
same,Share of conjugation,[1]; [18],100%
same,form present in urine (conjugated/unconjugated),[1],only present in their conjugated forms
same,Cumulative excreted amount,[1]; [19],0.0030 ± 0.0011 µmol
same,relative urinary share of the amount recovered within 72 h,[1]; urine,17.2%
same,"t1/2 (elimination half-life, renal excretion)","[1]; urine, n = 3",13.9 h
same,plasma to blood ratio,[3],1.5 to 1.6
same,share of the total amount of all analytes at the time point of maximum concentration,[2],0.04%
same,time after which mean blood level was below LOD,[2],48 h
same,cmax (maximum blood level),[2],0.27 ± 0.10 µg/L
"CN(C)CCc1ccc(O)cc1 [N,N-dimethyltyramine]",time to plasma peak level,[4],30 to 90 min
"CC(C)(C)c1cc(-n2nc3ccc(Cl)cc3n2)c(O)c(C(C)(C)C)c1 [UV-327, 2-(5-chloro-benzotriazol-2-yl)-4,6-di-(tert-butyl)phenol]",Cumulative excreted amount,"[1]; both, human, in vivo",0.0016 ± 0.0007 µmol
same,FUE after 24 h (urinary excretion factor),"[1]; both, human, in vivo",0.0015 ± 0.0004%
same,FUE after 48 h (urinary excretion factor),"[1]; both, human, in vivo",0.0023 ± 0.0007%
same,FUE after 72 h (urinary excretion factor),"[1]; both, human, in vivo",0.0026 ± 0.0009%
same,half-life,"[1]; both, human, in vivo",18.2 h
same,share of the total 72 h urinary amount (UV-327 and its metabolites) excreted within 24 h,"[1]; both, human, in vivo",61%
same,share of the total 72 h urinary amount (UV-327 and its metabolites) excreted within 48 h,"[1]; both, human, in vivo",88%
same,REmax (maximum renal excretion rate),[1]; [20],0.026 ± 0.007 µg/h
same,Tmax,[1]; [20],13.5 ± 0.05 h
same,Share of conjugation,"[1]; human, in vivo",16%
same,unconjugated form in urine,"[1]; human, in vivo",84%
same,relative urinary share of the amount recovered within 72 h,[1]; urine,9.0%
same,activity against human estrogen receptor,[5],no activity
same,activity against human androgen receptor,[6],no activity
same,activity against thyroid hormone receptors,[7],no activity
same,binding to human serum albumin,[8],found to bind to human serum albumin by forming hydrogen bonds
same,Log Kow,[9],6.75
same,Cmax,[10],632 ± 114 ng/mL
same,Tmax,[10],6 h
same,concentration at 24 h,[10],103 ± 24 ng/mL
same,concentration at 72 h,[10],27 ± 5 ng/mL
same,Tmax,[11],6 h
same,oral LD50,[12],> 5000 mg/kg body weight
same,reproductive toxicity,[13],did not cause reproductive
same,liver findings after repeated oral administration,[14],"increased liver weights, histopathological changes in hepatic tissue, and alterations in liver-specific blood parameters"
same,NOAEL,[15],30 mg/kg/day
same,extent of metabolism in human liver microsomes,[16],only moderately metabolized
same,conjugation in blood (with vs without enzymatic hydrolysis),"[2]; blood of one participant, β-glucuronidase/arylsulfatase",not present as conjugates in blood
same,share of the total amount of all analytes at the time point of maximum concentration,[2],99.9%
CCCOC(=O)c1ccc(O)cc1 [propyl paraben],time to maximum serum level,[17],1.4 ± 1.1 h
